According to patent US11850220B2 (Augusta University Research Institute, Inc., priority 2020, dated 2023):

Experiments:
[1] = system: acetic acid-induced abdominal writhing; experiment: acetic acid-induced abdominal writhing technique (peripheral analgesic); assay type: in vivo; settings: for Potency: Relative to indomethacin; for % Inhibition/protection / Writing reflex ± SEM: in vivo; as to % Inhibition/protection: test concentration or dose not given here; as to Writing reflex ± SEM: test concentration or dose not given here
[2] = system: carrageenan-induced paw edema; experiment: carrageenan-induced paw edema technique (anti-inflammatory); assay type: in vivo; settings: for Observed (1/property): 1/(% inhibition of edema thickness at 3 h effect); as to Observed (1/property): test concentration or dose not given here; as to Potency (% Inhibition relative to indomethacin at 3 h effect): test concentration or dose not given here
Source text: Anti-inflammatory properties of the ibuprofen-amino acid conjugate (5a-j) and ibuprofen-amino acid-4-aminophenol conjugates 7a-j were studied by the standard carrageenan-induced paw edema technique (Naumov, R. N. et al., Bioorg. Med. Chem. Lett. 2015, 25, 2314-2320; Tiwari, A. D. et al., Org. Biomol. Chem. 2014, 12, 7238-7249).

hot plate = hot plate technique (central analgesic); assay type: in vivo; settings: for Potency: Relative to indomethacin at 120 min.
animal gastric mucosa = experiment: ulcerogenic liability; assay type: in vivo
[3] = % inhibition of edema thickness at 3 h effect, Table 7
[4] = anti-inflammatory property (% inhibition of edema at 3 h), Table 8
[5] = same dose as anti-inflammatory testing

CC(C)Cc1ccc(C(C)C(=O)NCCCC(=O)Nc2ccc(O)cc2)cc1 (stereo not drawn) [Compound 7d, N-(4-Hydroxyphenyl)-4-(2-(4-isobutylphenyl)propanamido)butanamide]
Potency [1]: 77 | % Inhibition/protection [1]: 42.1% | Writing reflex ± SEM [1]: 56.3 ± 0.7 | Observed (1/property) ([2]; Table 7): 0.01515 | % inhibition of edema ([2]; 1 h): 13% | Mean edema thickness ([2]; 1 h): 1.07 ± 0.06 mm | % inhibition of edema ([2]; 2 h): 25% | Mean edema thickness ([2]; 2 h): 1.14 ± 0.04 mm | % inhibition of edema ([2]; 3 h): 66% | Mean edema thickness ([2]; 3 h): 0.44 ± 0.03 mm | % inhibition of edema ([2]; 4 h): 13% | Mean edema thickness ([2]; 4 h): 1.09 ± 0.04 mm | % inhibition of edema ([2]; 24 h): 53% | Mean edema thickness ([2]; 24 h): 0.09 ± 0.01 mm | Observed property [2, 3]: 66% | Observed property [2, 4]: 66% | Potency (% Inhibition relative to indomethacin at 3 h effect) [2]: 83% | % protection (hot plate; After 30 min.): (49.2) % | Latency period ± SEM (hot plate; After 30 min.): 3.61 ± 0.05 s | % protection (hot plate; After 60 min.): (27.8) % | Latency period ± SEM (hot plate; After 60 min.): 2.85 ± 0.04 s | % protection (hot plate; After 90 min.): (15.0) % | Latency period ± SEM (hot plate; After 90 min.): 2.53 ± 0.02 s | % protection (hot plate; After 120 min.): (12.3) % | Latency period ± SEM (hot plate; After 120 min.): 2.46 ± 0.09 s | Potency (hot plate): 22 | melting point: 140.6 °C

CSCC[C@H](NC(=O)C(C)c1ccc(CC(C)C)cc1)C(=O)Nc1ccc(O)cc1 (stereo partly drawn) [Compound 7i, (2S)-N-(4-Hydroxyphenyl)-2-(2-(4-isobutylphenyl)propanamido)-4-(methylthio)butanamide]
Potency [1]: 128 | % Inhibition/protection [1]: 70.4% | Writing reflex ± SEM [1]: 28.8 ± 1.0 | Observed (1/property) ([2]; Table 7): 0.01786 | % inhibition of edema ([2]; 1 h): 34% | Mean edema thickness ([2]; 1 h): 0.81 ± 0.04 mm | % inhibition of edema ([2]; 2 h): 48% | Mean edema thickness ([2]; 2 h): 0.79 ± 0.04 mm | % inhibition of edema ([2]; 3 h): 56% | Mean edema thickness ([2]; 3 h): 0.57 ± 0.02 mm | % inhibition of edema ([2]; 4 h): 49% | Mean edema thickness ([2]; 4 h): 0.64 ± 0.03 mm | % inhibition of edema ([2]; 24 h): 5% | Mean edema thickness ([2]; 24 h): 0.18 ± 0.02 mm | Observed property [2, 3]: 56% | Observed property [2, 4]: 56% | Potency (% Inhibition relative to indomethacin at 3 h effect) [2]: 70% | % protection (hot plate; After 30 min.): (86.4) % | Latency period ± SEM (hot plate; After 30 min.): 4.51 ± 0.07 s | % protection (hot plate; After 60 min.): (90.1) % | Latency period ± SEM (hot plate; After 60 min.): 4.24 ± 0.05 s | % protection (hot plate; After 90 min.): (97.7) % | Latency period ± SEM (hot plate; After 90 min.): 4.35 ± 0.02 s | % protection (hot plate; After 120 min.): (121.5) % | Latency period ± SEM (hot plate; After 120 min.): 4.85 ± 0.04 s | Potency (hot plate): 215 | melting point: 190.8 °C

CC(C)Cc1ccc(C(C)C(=O)NCCCC(=O)O)cc1 (stereo not drawn) [Compound 5d, 4-(2-(4-Isobutylphenyl)propanamido)butanoic acid]
Potency [1]: 7 | % Inhibition/protection [1]: 3.8% | Writing reflex ± SEM [1]: 93.6 ± 2.6 | Observed (1/property) ([2]; Table 7): 0.01667 | % inhibition of edema ([2]; 1 h): 22% | Mean edema thickness ([2]; 1 h): 0.96 ± 0.06 mm | % inhibition of edema ([2]; 2 h): 28% | Mean edema thickness ([2]; 2 h): 1.09 ± 0.07 mm | % inhibition of edema ([2]; 3 h): 60% | Mean edema thickness ([2]; 3 h): 0.52 ± 0.04 mm | % inhibition of edema ([2]; 4 h): 13% | Mean edema thickness ([2]; 4 h): 1.09 ± 0.05 mm | % inhibition of edema ([2]; 24 h): 58% | Mean edema thickness ([2]; 24 h): 0.08 ± 0.02 mm | Observed property [2, 3]: 60% | Observed property [2, 4]: 60% | Potency (% Inhibition relative to indomethacin at 3 h effect) [2]: 75% | % protection (hot plate; After 30 min.): (34.7) % | Latency period ± SEM (hot plate; After 30 min.): 3.26 ± 0.12 s | % protection (hot plate; After 60 min.): (19.3) % | Latency period ± SEM (hot plate; After 60 min.): 2.66 ± 0.04 s | % protection (hot plate; After 90 min.): (13.2) % | Latency period ± SEM (hot plate; After 90 min.): 2.49 ± 0.03 s | % protection (hot plate; After 120 min.): (8.2) % | Latency period ± SEM (hot plate; After 120 min.): 2.37 ± 0.01 s | Potency (hot plate): 14 | melting point: 78.3 °C

CC(C)Cc1ccc(C(C)C(=O)O)cc1 (stereo not drawn) [Ibuprofen, reference compound]
% Incidence of ulcer divided by 10 (animal gastric mucosa; [5]): 3.33 | Average of ulcer number (animal gastric mucosa; [5]): 0.33 | Average severity of ulcer (animal gastric mucosa; [5]): 0.67 | Number of animals with ulcer (animal gastric mucosa; [5]): 2/6 | Potency [1]: 93 | % Inhibition/protection [1]: 50.8% | Writing reflex ± SEM [1]: 47.9 ± 2.1 | % inhibition of edema ([2]; 1 h): 25% | Mean edema thickness ([2]; 1 h): 0.92 ± 0.02 mm | % inhibition of edema ([2]; 2 h): 37% | Mean edema thickness ([2]; 2 h): 0.95 ± 0.03 mm | % inhibition of edema ([2]; 3 h): 71% | Mean edema thickness ([2]; 3 h): 0.38 ± 0.01 mm | % inhibition of edema ([2]; 4 h): 49% | Mean edema thickness ([2]; 4 h): 0.64 ± 0.02 mm | % inhibition of edema ([2]; 24 h): 32% | Mean edema thickness ([2]; 24 h): 0.13 ± 0.01 mm | % protection (hot plate; After 30 min.): (25.2) % | Latency period ± SEM (hot plate; After 30 min.): 3.03 ± 0.04 s | % protection (hot plate; After 60 min.): (30.5) % | Latency period ± SEM (hot plate; After 60 min.): 2.91 ± 0.02 s | % protection (hot plate; After 90 min.): (40.5) % | Latency period ± SEM (hot plate; After 90 min.): 3.09 ± 0.04 s | % protection (hot plate; After 120 min.): (50.2) % | Latency period ± SEM (hot plate; After 120 min.): 3.29 ± 0.03 s | Potency (hot plate): 89

CC(C)Cc1ccc(C(C)C(=O)NCC(=O)O)cc1 (stereo not drawn) [Compound 5a, (2-(4-Isobutylphenyl)propanoyl)glycine]
% Incidence of ulcer divided by 10 (animal gastric mucosa; in vivo): 0 | Average of ulcer number (animal gastric mucosa; in vivo): 0 | Average severity of ulcer (animal gastric mucosa; in vivo): 0 | Number of animals with ulcer (animal gastric mucosa; in vivo): 0 | Ulcer index (animal gastric mucosa; in vivo): 0 | Potency [1]: 83 | % Inhibition/protection [1]: 45.6% | Writing reflex ± SEM [1]: 52.9 ± 1.3 | Observed (1/property) ([2]; Table 7): 0.01389 | % inhibition of edema ([2]; 1 h): 53% | Mean edema thickness ([2]; 1 h): 0.58 ± 0.02 mm | % inhibition of edema ([2]; 2 h): 66% | Mean edema thickness ([2]; 2 h): 0.51 ± 0.04 mm | % inhibition of edema ([2]; 3 h): 72% | Mean edema thickness ([2]; 3 h): 0.37 ± 0.06 mm | % inhibition of edema ([2]; 4 h): 67% | Mean edema thickness ([2]; 4 h): 0.41 ± 0.04 mm | % inhibition of edema ([2]; 24 h): 68% | Mean edema thickness ([2]; 24 h): 0.06 ± 0.01 mm | Observed property [2, 3]: 72% | Observed property [2, 4]: 72% | Potency (% Inhibition relative to indomethacin at 3 h effect) [2]: 90% | % protection (hot plate; After 30 min.): (15.3) % | Latency period ± SEM (hot plate; After 30 min.): 2.79 ± 0.03 s | % protection (hot plate; After 60 min.): (28.3) % | Latency period ± SEM (hot plate; After 60 min.): 2.86 ± 0.04 s | % protection (hot plate; After 90 min.): (29.1) % | Latency period ± SEM (hot plate; After 90 min.): 2.84 ± 0.02 s | % protection (hot plate; After 120 min.): (29.7) % | Latency period ± SEM (hot plate; After 120 min.): 2.84 ± 0.05 s | Potency (hot plate): 52

CC(C)Cc1ccc(C(C)C(=O)NCCC(=O)Nc2ccc(O)cc2)cc1 (stereo not drawn) [Compound 7c, N-(4-Hydroxyphenyl)-3-(2-(4-isobutylphenyl)propanamido)propanamide]
Potency [1]: 115 | % Inhibition/protection [1]: 63.0% | Writing reflex ± SEM [1]: 36.0 ± 1.3 | Observed (1/property) ([2]; Table 7): 0.01493 | % inhibition of edema ([2]; 1 h): 35% | Mean edema thickness ([2]; 1 h): 0.80 ± 0.03 mm | % inhibition of edema ([2]; 2 h): 58% | Mean edema thickness ([2]; 2 h): 0.63 ± 0.03 mm | % inhibition of edema ([2]; 3 h): 67% | Mean edema thickness ([2]; 3 h): 0.43 ± 0.02 mm | % inhibition of edema ([2]; 4 h): 70% | Mean edema thickness ([2]; 4 h): 0.38 ± 0.01 mm | % inhibition of edema ([2]; 24 h): 0% | Mean edema thickness ([2]; 24 h): 0.19 ± 0.02 mm | Observed property [2, 3]: 67% | Observed property [2, 4]: 67% | Potency (% Inhibition relative to indomethacin at 3 h effect) [2]: 84% | % protection (hot plate; After 30 min.): (58.3) % | Latency period ± SEM (hot plate; After 30 min.): 3.83 ± 0.03 s | % protection (hot plate; After 60 min.): (53.4) % | Latency period ± SEM (hot plate; After 60 min.): 3.42 ± 0.12 s | % protection (hot plate; After 90 min.): (52.7) % | Latency period ± SEM (hot plate; After 90 min.): 3.36 ± 0.15 s | % protection (hot plate; After 120 min.): (52.1) % | Latency period ± SEM (hot plate; After 120 min.): 3.33 ± 0.11 s | Potency (hot plate): 92 | melting point: 155.5 °C

CC(C)Cc1ccc(C(C)C(=O)N[C@@H](C)C(=O)Nc2ccc(O)cc2)cc1 (stereo partly drawn) [Compound 7b, (2S)-N-(4-Hydroxyphenyl)-2-(2-(4-isobutylphenyl)propanamido)propanamide]
Potency [1]: 132 | % Inhibition/protection [1]: 72.6% | Writing reflex ± SEM [1]: 26.7 ± 1.1 | Observed (1/property) ([2]; Table 7): 0.01613 | % inhibition of edema ([2]; 1 h): 21% | Mean edema thickness ([2]; 1 h): 0.97 ± 0.05 mm | % inhibition of edema ([2]; 2 h): 25% | Mean edema thickness ([2]; 2 h): 1.13 ± 0.06 mm | % inhibition of edema ([2]; 3 h): 62% | Mean edema thickness ([2]; 3 h): 0.50 ± 0.02 mm | % inhibition of edema ([2]; 4 h): 44% | Mean edema thickness ([2]; 4 h): 0.70 ± 0.03 mm | % inhibition of edema ([2]; 24 h): 5% | Mean edema thickness ([2]; 24 h): 0.18 ± 0.02 mm | Observed property [2, 3]: 62% | Observed property [2, 4]: 62% | Potency (% Inhibition relative to indomethacin at 3 h effect) [2]: 78% | % protection (hot plate; After 30 min.): (74.0) % | Latency period ± SEM (hot plate; After 30 min.): 4.21 ± 0.14 s | % protection (hot plate; After 60 min.): (78.5) % | Latency period ± SEM (hot plate; After 60 min.): 3.98 ± 0.09 s | % protection (hot plate; After 90 min.): (75.0) % | Latency period ± SEM (hot plate; After 90 min.): 3.85 ± 0.05 s | % protection (hot plate; After 120 min.): (60.7) % | Latency period ± SEM (hot plate; After 120 min.): 3.52 ± 0.06 s | Potency (hot plate): 107 | melting point: 193.7 °C
